The results in this text go back to patent publication US4410527A, “Substituted thienobenzodiazepinones and salts thereof” (Dr. Karl Thomae Gesellschaft mit beschrankter Haftung, priority 1982, dated 1983).

Structures are written as SMILES.

Series [1] deals with muscarinic receptors (cerebral cortex). The series is described as follows: Binding to muscarinic receptors, 3H-N-methylscopolamine displacement, cerebral cortex. Details: species or system rat (male Sprague-Dawley). The conditions noted are these: rat cerebral cortex homogenate 1:3000, 0.3 n molar 3H-NMS, pH 7.4, 30° C., 45 minutes; read-out: Receptor binding tests IC50 Cortex. On the procedure:
(§1) 2. Studies of Binding to Muscarinic Receptors: Determination of the IC50 value
(§2) The organ donors were male Sprague-Dawley rats with a body weight of from 180 to 220 gm. After the heart, stomach and cerebral cortex had been removed, the remainder of the operation was carried out in ice-cold Hepes-HCl buffer (pH 7.4; 100 m molar NaCl, 10 m molar MgCl2). The smooth muscle of the fundus of the stomach was separated from the mucous membrane of the stomach and subjected to preliminary homogenization. The whole heart was cut up with scissors. All the organs were then homogenized in a Potter apparatus.
(§3) For the binding test, the homogenized organs were diluted as follows:
(§4) The homogenized organ preparations were incubated at a specific concentration of the radioligand and with a series of concentrations of the non-radioactive test substances in an Eppendorf centrifuge tube at 30° C. The duration of incubation was 45 minutes. 0.3 n molar ^3 H-N-methylscopolamine (^3 H-NMS) was used as the radioligand. After incubation had been brought to an end by centrifuging at 14,000 g, the radioactivity in the pellet was determined. It represents the sum of the specific and non-specific binding of ^3 H-NMS. The proportion of non-specific binding was defined as the radioactivity which was bound in the presence of 1μ molar quinuclidinyl benzylate. Four measurements were taken in each case. The IC50 values of the nonlabelled test substances were determined graphically. They represent the concentration of test substance at which the specific binding of ^3 H-NMS to the muscarinic receptors in the various organs was inhibited by 50%.

For series [2], the target named is muscarinic receptors (smooth muscle of the fundus of the stomach). The series is described as follows: Binding to muscarinic receptors, 3H-N-methylscopolamine displacement, smooth muscle of fundus of stomach. Details: species or system rat (male Sprague-Dawley). The conditions noted are these: rat stomach fundus smooth muscle homogenate 1:100, 0.3 n molar 3H-NMS, pH 7.4, 30° C., 45 minutes; read-out: Receptor binding tests IC50 Smooth muscle fundus of stomach. On the procedure:
as §1, §2, §3
Smooth muscle of the fundus of the stomach--1: 100
as §4

Series [3] has as its target T1, muscarinic receptors (heart) (Rattus norvegicus, UniProt P10980).
T1 construct: All the organs were then homogenized in a Potter apparatus; from tissue; host or cells: whole heart of male Sprague-Dawley rats, homogenate diluted 1:250
T1 sequence (P10980 1-466): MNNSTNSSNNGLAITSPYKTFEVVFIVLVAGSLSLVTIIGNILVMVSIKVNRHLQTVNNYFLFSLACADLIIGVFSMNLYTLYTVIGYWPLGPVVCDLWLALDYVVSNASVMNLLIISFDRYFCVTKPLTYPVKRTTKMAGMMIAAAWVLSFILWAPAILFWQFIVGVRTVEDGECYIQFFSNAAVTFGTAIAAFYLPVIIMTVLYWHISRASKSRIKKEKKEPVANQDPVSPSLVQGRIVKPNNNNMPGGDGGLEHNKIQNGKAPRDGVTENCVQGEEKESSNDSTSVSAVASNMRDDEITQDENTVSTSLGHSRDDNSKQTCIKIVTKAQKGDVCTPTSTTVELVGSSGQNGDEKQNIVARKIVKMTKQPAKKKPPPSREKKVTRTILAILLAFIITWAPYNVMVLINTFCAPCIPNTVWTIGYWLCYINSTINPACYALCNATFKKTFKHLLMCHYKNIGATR
Put plainly: Binding to muscarinic receptors, 3H-N-methylscopolamine displacement, whole heart. Details: species or system rat (male Sprague-Dawley). As to conditions: rat whole heart homogenate 1:250, 0.3 n molar 3H-NMS, pH 7.4, 30° C., 45 minutes; read-out: Receptor binding tests IC50 Heart. On the procedure: as §1, §2, §3, §4

Series [4] concerns oxotremorine-induced lesions in mucous membrane of stomach (muscarinic receptors). Put plainly: Oxotremorine test: protection against oxotremorine-induced lesions of the gastric mucous membrane (anti-ulcerogenic effect). The class given is in vivo, rat (female albino, Crl:COBS-CD (SD) BR). The conditions noted are these: iv, rat, 0.62 mg/kg i.v. oxotremorine, 1 mg/kg oral neostigmine; for ED50: ED50, i.v.; for ED70: ED70, i.v. The text has this: (§5) Investigation of the Selectivity of the Antimuscarinic Activity
(§6) Oxotremorine, a specific agonist for muscarinic receptors, produces lesions in the mucous membrane of the stomach in rats and increases their secretion of saliva. This test method was chosen so that any selective activity of an antimuscarinic substance on the stomach could be identified.
(§7) Ten female albino rats (of the Crl:COBS-CD (SD) BR strain) with a body weight of from 120 to 150 gm were used in each treatment group and were kept without food for 24 hours before the start of the test, but given free access to drinking water.
(§8) In order to determine, in preliminary tests, the muscarinic effect of oxotremorine on each of the symptoms studied, a dosage/activity curve was drawn up with at least three dosages for each symptom.
(§9) When testing the antimuscarinic substances, the dosage of oxotremorine which triggered the symptom in question in 90 to 100% of the animals in the preliminary tests was used.
Lesion in mucous membrane of stomach: 0.62 mg/kg i.v.
Each antimuscarinic substance was administered intravenously in uniformly graduated doses 15 minutes before the oxotremorine was administered. Control groups were given corresponding quantities of the solvent and suspending agent instead of the test substance.
(§10) The ED50 values were determined using the method described by LITCHFIELD and WILCOXON [J. Pharmacol. Exp.Ther. 96, 99, (1949)].
The effects on lesions of the mucous membrane of the stomach were evaluated as follows:
The lesions of the gastric mucous membrane were produced by intravenous injection of 0.62 mg/kg of oxotremorin 30 minutes after the oral administration of 1 mg/kg of neostigmine (a cholinesterase inhibitor). 60 minutes after the administration of the neostigmine, the animals were killed, the stomachs were removed, opened and examined for the presence of any lesions in the mucous membrane. The protective effect of the test substances was expressed as the percentage inhibition (percentage of animals without lesions). The ED50 and ED70 values were determined using the method of LITCHFIELD and WILCOXON (supra).

For series [5], the system named is oxotremorine-induced secretion of saliva (muscarinic receptors). The series is described as follows: Oxotremorine test: inhibition of oxotremorine-induced secretion of saliva. The class given is in vivo, rat (female albino, Crl:COBS-CD (SD) BR). As to conditions: iv, 0.25 h; i.v., rat, 15 minutes before 0.083 mg/kg i.v. oxotremorine; read-out: Oxotremorine test Inhibition of salivation ED50.
Excerpt: as §5, §6, §7, §8, §9
Secretion of saliva: 0.083 mg/kg i.v.
Each antimuscarinic substance was administered intravenously in uniformly graduated doses 15 minutes before the oxotremorine was administered. Control groups were given corresponding quantities of the solvent and suspending agent instead of the test substance. […]
as §10

A short description of series [6]: Mydriasis: effect on pupil size in rats. The conditions noted are these: in vivo, iv, rat, pupil size observed for 10 minutes. Here is the method: The effect of the test substances on the pupil size in rats was investigated as follows:
The substances were administered intravenously to groups of 10 animals in at least three uniformly graduated doses. […] The percentage of test animals in which mydriasis occurred was determined. The ED50 values were again determined using the method of LITCHFIELD and WILCOXON (supra).

For the compound `CN1CCC(NC(=O)N2c3ccccc3NC(=O)c3cscc32)CC1` [B, 4,9-Dihydro-4-{[(1-methyl-4-piperidinyl)amino]carbonyl}-10H-thieno[3,4-b][1,5]benzodiazepin-10-one], the IC50 in series [1] was 30 nM; in series [2], 300 nM; in series [3], 220 nM. The results for the ED50 in series [4] and in series [5] were 0.017 mg/kg and 0.04 mg/kg, respectively. The compound also returned an ED70 in series [4] of 0.044 mg/kg. Moreover, the 50% effect level in series [6] (ED50 at 10 min) was put at a dose of 0.037 mg/kg.
Take `CN1CCN(NC(=O)N2c3ccccc3NC(=O)c3cscc32)CC1` [C, 4,9-Dihydro-4-{[(4-methyl-1-piperazinyl)amino]carbonyl}-10H-thieno[3,4-b][1,5]benzodiazepin-10-one]: the IC50 in series [1] came out at 20 nM; in series [2], 200 nM; in series [3] it was 90 nM. Moreover, the ED70 in series [4] was found to be 0.019 mg/kg. Also, the ED50 at 10 min in series [6] turned out to be 0.03 mg/kg.
Regarding `CN1CCC(OC(=O)N2c3ccccc3NC(=O)c3cscc32)CC1` [A, 4,9-Dihydro-4-{[(1-methyl-4-piperidinyl)oxy]carbonyl}-10H-thieno[3,4-b][1,5]benzodiazepin-10-one], the IC50 in series [1] stood at 40 nM; in series [2], 200 nM; in series [3], 180 nM. Besides, the ED50 in series [4] amounted to 0.017 mg/kg; in series [5], 0.1 mg/kg. The compound further displayed an ED70 in series [4] of 0.025 mg/kg. The ED50 at 10 min in series [6] came out at 0.11 mg/kg.
